# Literature values, collected in patent publication US20210000792A1, “METHODS FOR REDUCING OR PREVENTING CARDIOVASCULAR EVENTS IN PATIENTS WITH TYPE II DIABETES MELLITUS” (Janssen Pharmaceutica NV, priority 2017, published 2021).
# System: diabetic patients
# Details: metformin on its own; cited from earlier work
smiles,measurement,value
CN(C)C(=N)N=C(N)N [metformin],Average improvement in the HbA1c value,1.0-1.5%
